Reference: US8889874B2, “Imidazolone-chalcone derivatives as potential anticancer agent and process for the preparation thereof” (Council of Scientific and Industrial Research, priority 2010, dated 2014)
Where two headings read alike, the source gives them in different places.

Assays:
Assay type in all cases: cell-based, human
[1] = test system: A549/ATCC (non-small cell lung); assay: NCI anticancer screen, SRB assay, 48 h; conditions: Homo sapiens
Method: (§1) Some of biological activity studies were carried out at the National Cancer Institute (NCI), Maryland, USA.
(§2) The compounds were evaluated for anticancer activity against fifty three human cancer cells derived from nine cancer types (leukemia cell line, non-small-cell lung cell line, colon cell line, CNS cell line, melanoma cell line, ovarian cell line, prostate cell line, and breast cancer cell line) as shown in Table 1. For each compound, dose response curves for each cell line were measured at a minimum of five concentrations at 10 fold dilutions. A protocol of 48 h continuous drug exposure was used and a sulforhodamine B (SRB) protein assay was used to estimate cell viability or growth.

[2] = test system: EKVX (non-small cell lung); assay: NCI anticancer screen, SRB assay, 48 h; conditions: Homo sapiens
Method: as §1, §2

SW-620 (colon) = assay: NCI anticancer screen, SRB assay, 48 h; conditions: Homo sapiens
Method: as §1, §2

CAKI-1 (renal) = assay: NCI anticancer screen, SRB assay, 48 h; conditions: Homo sapiens
Method: as §1, §2

OVCAR-8 (ovarian) = assay: NCI anticancer screen, SRB assay, 48 h; conditions: Homo sapiens
Method: as §1, §2

[3] = test system: NCI-H460 (non-small cell lung); assay: NCI anticancer screen, SRB assay, 48 h; conditions: Homo sapiens
Method: as §1, §2

ACHN (renal) = assay: NCI anticancer screen, SRB assay, 48 h; conditions: Homo sapiens
Method: as §1, §2

SNB-19 (CNS) = assay: NCI anticancer screen, SRB assay, 48 h; conditions: Homo sapiens
Method: as §1, §2

UACC-257 (melanoma) = assay: NCI anticancer screen, SRB assay, 48 h; conditions: Homo sapiens
Method: as §1, §2

SF-539 (CNS) = assay: NCI anticancer screen, SRB assay, 48 h; conditions: Homo sapiens
Method: as §1, §2

MALME-3M (melanoma) = assay: NCI anticancer screen, SRB assay, 48 h; conditions: Homo sapiens
Method: as §1, §2

SK-MEL-5 (melanoma) = assay: NCI anticancer screen, SRB assay, 48 h; conditions: Homo sapiens
Method: as §1, §2

A498 (renal) = assay: NCI anticancer screen, SRB assay, 48 h; conditions: Homo sapiens
Method: as §1, §2

SK-OV-3 (ovarian) = assay: NCI anticancer screen, SRB assay, 48 h; conditions: Homo sapiens
Method: as §1, §2

SN12C (renal) = assay: NCI anticancer screen, SRB assay, 48 h; conditions: Homo sapiens, SN12C
Method: as §1, §2

[4] = test system: NCI-H226 (non-small cell lung); assay: NCI anticancer screen, SRB assay, 48 h; conditions: Homo sapiens
Method: as §1, §2

TD-47D (breast) = assay: NCI anticancer screen, SRB assay, 48 h; conditions: Homo sapiens
Method: as §1, §2

786-0 (renal) = assay: NCI anticancer screen, SRB assay, 48 h; conditions: Homo sapiens
Method: as §1, §2

SK-MEL-28 (melanoma) = assay: NCI anticancer screen, SRB assay, 48 h; conditions: Homo sapiens
Method: as §1, §2

KM12 (colon) = assay: NCI anticancer screen, SRB assay, 48 h; conditions: Homo sapiens
Method: as §1, §2

[5] = test system: K-562 (leukemia cell line); assay: NCI anticancer screen, SRB assay, 48 h; conditions: Homo sapiens
Method: as §1, §2

[6] = test system: NCI-H23 (non-small cell lung); assay: NCI anticancer screen, SRB assay, 48 h; conditions: Homo sapiens
Method: as §1, §2

[7] = test system: Prostate cancer cell lines; assay: NCI anticancer screen, SRB assay, panel summary
Method: as §1, §2

[8] = test system: Ovarian cancer cell lines; assay: NCI anticancer screen, SRB assay, panel summary; conditions: Homo sapiens
Method: as §1, §2

[9] = test system: Non-small cell lung cancer cell lines; assay: NCI anticancer screen, SRB assay, panel summary; conditions: Homo sapiens
Method: as §1, §2

[10] = test system: Leukemia cancer cell lines; assay: NCI anticancer screen, SRB assay, panel summary; conditions: Homo sapiens
Method: as §1, §2

CNS cancer cell lines = assay: NCI anticancer screen, SRB assay, panel summary; conditions: for GI50: Homo sapiens
Method: as §1, §2

Renal cancer cell lines = assay: NCI anticancer screen, SRB assay, panel summary; conditions: Homo sapiens
Method: as §1, §2

Colon cancer cell lines = assay: NCI anticancer screen, SRB assay, panel summary; conditions: for GI50: Homo sapiens
Method: as §1, §2

[11] = test system: Melanoma cancer cell lines; assay: NCI anticancer screen, SRB assay, panel summary; conditions: for GI50: Homo sapiens
Method: as §1, §2

Breast cancer cell lines = assay: NCI anticancer screen, SRB assay, panel summary; conditions: Homo sapiens
Method: as §1, §2

[12] = 48 h exposure, SRB, read-out: GI50
[13] = read-out: pGI50 (-log of molar concentration causing 50% inhibition of net cell growth) (converted)

COc1cc(/C=C/C(=O)c2cccc(-n3cc(-c4cc(OC)c(OC)c(OC)c4)[nH]c3=O)c2)cc(OC)c1OC [5d, 4-(3,4,5-trimethoxyphenyl)-1-3-[(E)-3-(3,4,5-trimethoxyphenyl)-2-propenoyl]phenyl-2,3-dihydro-1H-2-imidazolone]
GI50 [1, 12]: 3.03 µM
GI50 [1, 13]: 3.02 µM
GI50 [2, 12]: 9.47 µM
GI50 [2, 13]: 9.55 µM
GI50 (SW-620 (colon); [12]): 1030 nM
GI50 (SW-620 (colon); [13]): 1020 nM
GI50 (CAKI-1 (renal); [12]): 2890 nM
GI50 (CAKI-1 (renal); [13]): 2880 nM
GI50 (OVCAR-8 (ovarian); [12]): 2320 nM
GI50 (OVCAR-8 (ovarian); [13]): 2340 nM
GI50 [3, 12]: 1730 nM
GI50 [3, 13]: 1740 nM
GI50 (ACHN (renal); [12]): 1740 nM
GI50 (ACHN (renal); [13]): 1740 nM
GI50 (SNB-19 (CNS); [12]): 4.07 µM
GI50 (SNB-19 (CNS); [13]): 4.07 µM
GI50 (UACC-257 (melanoma); [12]): 2220 nM
GI50 (UACC-257 (melanoma); [13]): 2240 nM
GI50 (SF-539 (CNS); [12]): 3.12 µM
GI50 (SF-539 (CNS); [13]): 3.09 µM
GI50 (MALME-3M (melanoma); Malme-3M, read-out: pGI50 (-log of molar concentration causing 50% inhibition of net cell growth) (converted)): 1820 nM
GI50 (MALME-3M (melanoma); MALME-3M, 48 h exposure, SRB, read-out: GI50): 1800 nM
GI50 (SK-MEL-5 (melanoma); [12]): 2760 nM
GI50 (SK-MEL-5 (melanoma); [13]): 2750 nM
GI50 (A498 (renal); [12]): 20.3 µM
GI50 (A498 (renal); [13]): 20.4 µM
GI50 (SK-OV-3 (ovarian); [12]): 5.12 µM
GI50 (SK-OV-3 (ovarian); [13]): 5.13 µM
GI50 (SN12C (renal); SN 12C, read-out: pGI50 (-log of molar concentration causing 50% inhibition of net cell growth) (converted)): 2750 nM
GI50 (SN12C (renal); [12]): 2750 nM
GI50 [4, 12]: 14.4 µM
GI50 [4, 13]: 14.5 µM
GI50 (TD-47D (breast); [12]): 3.08 µM
GI50 (TD-47D (breast); [13]): 3.09 µM
GI50 (786-0 (renal); [12]): 1590 nM
GI50 (786-0 (renal); [13]): 1580 nM
GI50 (SK-MEL-28 (melanoma); [12]): 1610 nM
GI50 (SK-MEL-28 (melanoma); [13]): 1620 nM
GI50 (KM12 (colon); [12]): 1120 nM
GI50 (KM12 (colon); [13]): 1120 nM
GI50 ([5]; K562, 48 h exposure, SRB, read-out: GI50): 590 nM
GI50 ([5]; K562, read-out: pGI50 (-log of molar concentration causing 50% inhibition of net cell growth) (converted)): 589 nM
GI50 [6, 12]: 2000 nM
GI50 [6, 13]: 2000 nM
GI50 ([7]; Homo sapiens, log of concentration in mol/L causing 50% inhibition of net cell growth, read-out: mean graph midpoint (MG_MID) of Log10 GI50 (converted)): 2630 nM
LC50 ([7]; Homo sapiens, log of concentration leading to 50% net cell death, read-out: mean graph midpoint (MG_MID) of Log10 LC50 (converted)): ≥ 100 µM
mean graph midpoint (MG_MID) of Log10 TGI ([7]; log of concentration resulting in total inhibition of net cell growth): 4.73
GI50 ([8]; Ovarian panel, log of concentration in mol/L causing 50% inhibition of net cell growth, read-out: mean graph midpoint (MG_MID) of Log10 GI50 (converted)): 2950 nM
LC50 ([8]; Ovarian panel, log of concentration leading to 50% net cell death, read-out: mean graph midpoint (MG_MID) of Log10 LC50 (converted)): 75.9 µM
GI50 ([8]; six ovarian cancer cell lines, exposure at least 48 hrs, read-out: GI50, range over the panel): 1480 to 5120 nM
GI50 ([9]; Non-small cell lung panel, log of concentration in mol/L causing 50% inhibition of net cell growth, read-out: mean graph midpoint (MG_MID) of Log10 GI50 (converted)): 13.8 µM
GI50 ([9]; nine non-small cell lung cancer cell lines, exposure at least 48 hrs, read-out: GI50, range over the panel): 1.05 to 14.4 µM
GI50 ([10]; Leukemia panel, log of concentration in mol/L causing 50% inhibition of net cell growth, read-out: mean graph midpoint (MG_MID) of Log10 GI50 (converted)): 380 nM
LC50 ([10]; Leukemia panel, log of concentration leading to 50% net cell death, read-out: mean graph midpoint (MG_MID) of Log10 LC50 (converted)): ≥ 100 µM
GI50 ([10]; two leukemia cancer cell lines (RPMI-8226 and K-562), exposure at least 48 hrs, read-out: GI50, range over the panel): 230 to 590 nM
mean graph midpoint (MG_MID) of Log10 LC50 (CNS cancer cell lines; CNS panel, log of concentration leading to 50% net cell death): 4.29
GI50 (CNS cancer cell lines; CNS panel, log of concentration in mol/L causing 50% inhibition of net cell growth, read-out: mean graph midpoint (MG_MID) of Log10 GI50 (converted)): 3.09 µM
GI50 (CNS cancer cell lines; six CNS cancer cell lines, exposure at least 48 hrs, read-out: GI50, range over the panel): 1.23 to 4.96 µM
GI50 (Renal cancer cell lines; Renal panel, log of concentration in mol/L causing 50% inhibition of net cell growth, read-out: mean graph midpoint (MG_MID) of Log10 GI50 (converted)): 2630 nM
LC50 (Renal cancer cell lines; Renal panel, log of concentration leading to 50% net cell death, read-out: mean graph midpoint (MG_MID) of Log10 LC50 (converted)): 27.5 µM
GI50 (Renal cancer cell lines; eight renal cancer cell lines, exposure at least 48 hrs, read-out: GI50, range over the panel): 960 to 20300 nM
mean graph midpoint (MG_MID) of Log10 LC50 (Colon cancer cell lines; Colon panel, log of concentration leading to 50% net cell death): 4.19
GI50 (Colon cancer cell lines; Colon panel, log of concentration in mol/L causing 50% inhibition of net cell growth, read-out: mean graph midpoint (MG_MID) of Log10 GI50 (converted)): 1910 nM
GI50 (Colon cancer cell lines; seven colon cancer cell lines, exposure at least 48 hrs, read-out: GI50, range over the panel): 740 to 1920 nM
GI50 ([11]; Melanoma panel, log of concentration in mol/L causing 50% inhibition of net cell growth, read-out: mean graph midpoint (MG_MID) of Log10 GI50 (converted)): 2040 nM
GI50 ([11]; nine melanoma cancer cell lines, exposure at least 48 hrs, read-out: GI50, range over the panel): 1230 to 3020 nM
mean graph midpoint (MG_MID) of Log10 LC50 ([11]; Melanoma panel, log of concentration leading to 50% net cell death): 4.67
GI50 (Breast cancer cell lines; Breast panel, log of concentration in mol/L causing 50% inhibition of net cell growth, read-out: mean graph midpoint (MG_MID) of Log10 GI50 (converted)): 3.98 µM
LC50 (Breast cancer cell lines; Breast panel, log of concentration leading to 50% net cell death, read-out: mean graph midpoint (MG_MID) of Log10 LC50 (converted)): 45.7 µM
GI50 (Breast cancer cell lines; five breast cancer cell lines, exposure at least 48 hrs, read-out: GI50, range over the panel): 0.47 to 4.19 µM
